Type in all cases: cell-based
Series [1] is described as follows: Cytotoxicity to mock-infected MT-4 cells. To be noted: human.
The next series has as its system HIV-1NL4–3. Put plainly: Anti-HIV activity against HIV-1NL4–3 infected MT-4 cells. Particulars: for EC50 (concentration of the test sample that was effective to suppress HIV replication by 50%): '-' = No activity (footnote b); for EC50: read-out: EC50 (concentration of the test sample that was effective to suppress HIV replication by 50%), '-' = No activity (footnote b).

A further series relates to mock-infected MT-4 cells. Briefly: Cytotoxicity to mock-infected MT-4 cells. To be noted: read-out: CC50 (concentration of test sample that was cytotoxic to 50% of the mock-infected cells).

On to `Cc1cn([C@H]2C[C@H](N=[N+]=[N-])[C@@H](CO)O2)c(=O)[nH]c1=O` [AZT, 3′-azido-3′-deoxythymidine, reference compound], for which the CC50 in series [1] turned out to be 140 µM. In addition, the “SI (Selectivity index = CC50/EC50)” value with HIV-1NL4–3 (CC50/EC50) worked out at 1385.

In the case of `C=C(C)[C@@H]1CC[C@]2(C(=O)O)CC[C@]3(C)[C@H](CC[C@@H]4[C@@]5(C)CC[C@H](OC(=O)CC(C)(C)C(=O)O)C(C)(C)[C@@H]5CC[C@]43C)[C@@H]12` [Bevirimat (14), 3-O-(3′,3′-dimethylsuccinyl)betulinic acid, reference compound], the CC50 in series [1] worked out at 13.2 µM.

Turning to `C#CCOC1CCC2(C)C(CCC3(C)C2CCC2C4C(C(=C)C)CCC4(CO[Si](C)(C)C(C)(C)C)CCC23C)C1(C)C` (stereo not drawn) [Compound 2], in the series with HIV-1NL4–3, the “EC50 (concentration of the test sample that was effective to suppress HIV replication by 50%)” value is recorded as “- ^b”.

`C#CCOC(=O)OC1CCC2(C)C(CCC3(C)C2CCC2C4C(C(=C)C)CCC4(CO[Si](C)(C)C(C)(C)C)CCC23C)C1(C)C` (stereo not drawn) [Compound 3]: the “EC50 (concentration of the test sample that was effective to suppress HIV replication by 50%)” value in the series with HIV-1NL4–3 is recorded as “-”.

Regarding `C#CCOC1CCC2(C)C(CCC3(C)C2CCC2C4C(C(=C)C)CCC4(CO)CCC23C)C1(C)C` (stereo not drawn) [Compound 4], the “EC50 (concentration of the test sample that was effective to suppress HIV replication by 50%)” value in the series on HIV-1NL4–3 is “-”.

For the compound `C#CCOC(=O)OC1CCC2(C)C(CCC3(C)C2CCC2C4C(C(=C)C)CCC4(CO)CCC23C)C1(C)C` (stereo not drawn) [Compound 5], in the series with HIV-1NL4–3, the “EC50 (concentration of the test sample that was effective to suppress HIV replication by 50%)” value was “-”.

In the case of `C#CCOC1CCC2(C)C(CCC3(C)C2CCC2C4C(C(=C)C)CCC4(COC(=O)CC(C)(C)C(=O)O)CCC23C)C1(C)C` (stereo not drawn) [Compound 7], in the series with HIV-1NL4–3, the “EC50 (concentration of the test sample that was effective to suppress HIV replication by 50%)” value is given as “-”.

For `C=C(C)C1CCC2(CO[Si](C)(C)C(C)(C)C)CCC3(C)C(CCC4C5(C)CCC(OC(=O)OCc6cn(C7CC(n8cc(C)c(=O)[nH]c8=O)OC7CO)nn6)C(C)(C)C5CCC43C)C12` (stereo not drawn) [Compound 9], in the series on HIV-1NL4–3, the “EC50 (concentration of the test sample that was effective to suppress HIV replication by 50%)” value was “inactive and -”.

For the compound `C=C(C)C1CCC2(COC(=O)CC(C)(C)C(=O)O)CCC3(C)C(CCC4C5(C)CCC(OCc6cn(C7CC(n8cc(C)c(=O)[nH]c8=O)OC7CO)nn6)C(C)(C)C5CCC43C)C12` (stereo not drawn) [Compound 13], the CC50 in the series with mock-infected MT-4 cells is above 4.6 µM. Also, the EC50 in the series on HIV-1NL4–3 was 350 nM.

Consider `C#CCOC(=O)[C@]12CC[C@@H](C(=C)C)[C@@H]1[C@H]1CC[C@@H]3[C@@]4(C)CC[C@H](OC(=O)CC(C)(C)C(=O)O)C(C)(C)[C@@H]4CC[C@@]3(C)[C@]1(C)CC2` [Compound 15], for which the CC50 with mock-infected MT-4 cells was 15.3 µM. For the same compound, the EC50 in the series on HIV-1NL4–3 is 67 nM.

`C=C(C)[C@@H]1CC[C@]2(C(=O)OCc3cn([C@H]4C[C@H](n5cc(C)c(=O)[nH]c5=O)O[C@@H]4CO)nn3)CC[C@]3(C)[C@H](CC[C@@H]4[C@@]5(C)CC[C@H](OC(=O)CC(C)(C)C(=O)O)C(C)(C)[C@@H]5CC[C@]43C)[C@@H]12` [Compound 16]: the CC50 in the series on mock-infected MT-4 cells turned out to be 11.2 µM. Further, the EC50 in the series on HIV-1NL4–3 is 100 nM.
